In one assay the test system is BRAF-MEK1. Kind of assay: BRAF-MEK TR-FRET assay, stabilization of MEK1 and BRAF interaction. The assay is classed as binding. Conditions: read-out: BRAF-MEK TR-FRET Assay (EC50, fold stabilization). Put shortly:
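His-MEK1 (full-length, E. coli) at 10 nM with GST-BRAF at 4 nM, 1 h at 25° C in pH 7.5 Tris buffer with 5 mM MgCl2 and 100 μM ATP; anti-His-Tb/anti-GST-XL665 added for 1 h more. 665/620 FRET ratio over DMSO gives fold stabilization; EC50 from 4-parameter fit, duplicate wells.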

The target in another assay is T1, MEK1 (Homo sapiens, UniProt Q02750).
T1 construct: purchased SignalChem M02-14H
T1 sequence (Q02750 whole entry): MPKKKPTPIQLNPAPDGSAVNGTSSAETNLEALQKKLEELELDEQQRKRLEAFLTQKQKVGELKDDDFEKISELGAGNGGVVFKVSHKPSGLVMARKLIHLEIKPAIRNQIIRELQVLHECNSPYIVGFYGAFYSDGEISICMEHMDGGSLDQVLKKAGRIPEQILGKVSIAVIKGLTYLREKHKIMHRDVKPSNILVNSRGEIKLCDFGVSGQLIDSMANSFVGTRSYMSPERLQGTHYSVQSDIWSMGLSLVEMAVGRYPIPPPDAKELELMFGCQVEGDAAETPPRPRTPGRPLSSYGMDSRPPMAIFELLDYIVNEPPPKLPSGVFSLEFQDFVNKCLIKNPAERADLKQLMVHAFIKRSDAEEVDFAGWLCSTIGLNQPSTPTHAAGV
T1 sequence (P15056 445-723 partner limits assumed): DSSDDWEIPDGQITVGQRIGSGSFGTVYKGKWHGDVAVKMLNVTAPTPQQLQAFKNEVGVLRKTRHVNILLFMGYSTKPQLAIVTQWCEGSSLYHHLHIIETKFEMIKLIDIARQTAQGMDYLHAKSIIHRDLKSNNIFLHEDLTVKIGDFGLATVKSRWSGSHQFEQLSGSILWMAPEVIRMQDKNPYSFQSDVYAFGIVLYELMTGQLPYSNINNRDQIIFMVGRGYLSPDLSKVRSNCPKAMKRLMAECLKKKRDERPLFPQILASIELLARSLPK
Kind of assay: MEK1 kinase cascade assay (ADP-Glo), inhibition of MEK1 kinase activity. It counts as biochemical. Put shortly: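 Compounds were preincubated 20 mins at 25° C with 25 nM BRAF(445-723) in 10 mM HEPES pH 7.5, 5 mM MgCl2, 2 mM CHAPS, 1 mM DTT, then 6.25 nM MEK1, 0.5 μM ERK1 and 1 mM ATP were added for 1 hr at 25° C, with 1% DMSO. ADP-Glo luminescence was normalized to DMSO and 1 μM Trametinib; IC50 came from 4-parameter fits of duplicates.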

Another assay relates to p-ERK1/2 in HCT116 cells. Kind of assay: AlphaLISA p-ERK assay, cellular inhibition of ERK phosphorylation in HCT116 cells. It counts as cell-based. Conditions: Homo sapiens, HCT-116, 2 hours treatment, PMA stimulation 30 mins. On the procedure: (§1) Cell culture: HCTI 16, HT-29, and NCI-H292 cells were acquired from American Type Culture Collection (ATCC). HCT116 and HT-29 cells were maintained in ATCC-formulated McCoy's 5a Medium Modified supplemented with 10% fetal bovine serum, NCI-H292 cells were cultured in ATCC formulated RPMI-1640 supplemented with 10% fetal bovine serum. All cells were maintained at 37° C., 5% CO2.
Efficacy of exemplary compounds in cellular inhibition of ERK phosphorylation: Phosphorylation status of ERK1/2 (p-ERK) was used as a readout for inhibition of BRAF-MEK pathway. p-ERK was detected using an immunoassay for quantitative detection of phospho-ERK 1/2 (phosphorylated on Thr202/Tyr204 in ERK1, or Thr185/Tyr187 in ERK2), such as the AlphaLISA® SureFire® Ultra™ p-ERK1/2 (Thr202/Tyr204) kit (Perkin Elmer). HCT116 cells were plated at 10,000 cells per well in 384-well TC-treated plates (Coming). Cells were plated for 24 hours, the medium was then aspirated and cells were treated with vehicle (DMSO) or test compounds (0.1% DMSO in final volume) prepared in serum free, phenol red free medium for 2 hours. Following treatment, cells were stimulated with PMA (1.25 μM/well) for 30 mins after which the medium was aspirated, and the cells were lysed for 10 mins with 1× lysis buffer supplemented with Halt Protease and Phosphatase Inhibitor Cocktail (Thermo Fisher). The lysate was transferred to a 384 well Alpha-plate (PerkinElmer) and incubated for 1 hour with acceptor bead mix followed by 1 hour incubation with donor bead mix. After incubation, the plate was read on a Cytation5 microplate reader (Agilent). % inhibition as a function of compound concentration from 3 replicate wells was fit with a 4-parameter logistic curve using GraphPad Prism or CDD Vault to derive IC50 values.
(§2) In this table, for the BRAF ADP Glo kinase assay, “A” indicates IC50 of less than 5 nM; “B” indicates IC50 of between 5 nM to 50 nM; and “C” indicates IC50 of between 50 nM to 500 nM. “D” indicates IC50 of greater than 500 nM. For the BRAF-MEK TR-FRET assay, “A” indicates EC50 of less than 50 nM; “B” indicates EC50 of between 50 nM to 200 nM; and “C” indicates EC50 of between 200 nM to 1 μM. “D′” indicates EC50 of greater than 1 μM. For the AlphaLisa P-ERK assay, “A” indicates IC50 of less than 1 nM; “B” indicates IC50 of between 1 nM to 10 nM; and “C” indicates IC50 of between 10 nM to 100 nM. “D” indicates IC50 of greater than 100 nM. For the cell viability assay, “A” indicates IC50 of less than 1 nM; “B” indicates IC50 of between 1 nM to 10 nM; and “C” indicates IC50 of between 10 nM to 100 nM. “D” indicates IC50 of greater than 100 nM.

The next assay concerns NCI-H292 cells. The experiment in a line: Cell viability assay (CellTiter-Glo), NCI-H292. It counts as cell-based. The following applies: Homo sapiens, 72 hrs, read-out: Cell Viability Assay: IC50 Determination NCI-H292. On the procedure:
as §1
Efficacy of exemplary compounds in inhibition of cell viability: HCT116 and HT-29 cells were plated at 4,000 cells per well and NCI-H292 cells were plated at 2,000 cells per well in their respective media in 384-well white, TC-treated plates (Corning). After 24 hours of incubation, the cells were treated with vehicle (DMSO) or test compounds (0.1% DMSO in final volume) for 72 hrs. The plate was equilibrated at room temperature for 10 mins followed by addition of a 1:1 volume of CellTiter-Glo® reagent (Promega). The contents were mixed for 2 mins on an orbital shaker to induce lysis. The plate was incubated at room temperature for 10 mins to stabilize luminescent signal before measuring luminescence on a Cytation5 microplate reader (Agilent). % inhibition as a function of compound concentration from 3 replicate wells was fit with a 4-parameter logistic curve using GraphPad Prism or CDD Vault to derive IC50 values.
as §2

Where [1] appears, read: 4 nM BRAF, 10 nM MEK, 100 μM ATP, 1 hr at 25° C.
[2] abbreviates: 25 nM BRAF, 6.25 nM MEK1, 0.5 μM ERK, 1 mM ATP, 20 min preincubation, 1 hr at 25° C., read-out: BRAF ADP Glo kinase assay V3 (IC50).

Where two headings read alike, the source gives them in different places. Some results are limits rather than exact numbers.

In the case of `CN(C)C(=O)Oc1ccc2c(c1)OC(=O)N(Cc1cccc(CN3CCOC3=O)c1F)C2` [Compound 21, 3-(2-fluoro-3-((2-oxooxazolidin-3-yl)methyl)benzyl)-2-oxo-3,4-dihydro-2H-benzo[e][1,3]oxazin-7-yl dimethylcarbamate], the EC50 with BRAF-MEK1 (setting [1]) fell in the range of 200 to 1000 nM. The IC50 lay within 5 to 50 nM at MEK1 (setting [2]) and 1 to 10 nM with p-ERK1/2 in HCT116 cells.

As for `CN(C)S(=O)(=O)Nc1cccc(CN2C(=O)Oc3c(ccc(Oc4cccnn4)c3F)C23COC3)c1F` [Compound 40, 3-({3-[(dimethylsulfamoyl)amino]-2-fluorophenyl}methyl)-8-fluoro-7-(pyridazin-3-yloxy)-2,3-dihydrospiro[1,3-benzoxazine-4,3′-oxetan]-2-one], the EC50 in the assay with BRAF-MEK1 (setting [1]) was in the range of 50 to 200 nM. The values for the IC50 on MEK1 (setting [2]), with p-ERK1/2 in HCT116 cells and in the assay with NCI-H292 cells were 5 to 50 nM, 10 to 100 nM and 1 to 10 nM, respectively.

Consider `CNS(=O)(=O)Nc1cccc(CN2Cc3cc(Cl)c(OC(=O)N(C)C)cc3OC2=O)c1F` [Compound 149, 6-chloro-3-(2-fluoro-3-((N-methylsulfamoyl)amino)benzyl)-2-oxo-3,4-dihydro-2H-benzo[e][1,3]oxazin-7-yl dimethylcarbamate], for which the EC50 in the assay on BRAF-MEK1 (60 min) lay in the range of 50 to 200 nM. The IC50 on MEK1 (BRAF ADP Glo kinase assay V3 (IC50)) is under 5 nM; in the assay with p-ERK1/2 in HCT116 cells, 1 to 10 nM; in the assay on NCI-H292 cells, 1 to 10 nM.

Take `O=C1Oc2cc(Oc3cccnn3)ccc2C2(COC2)N1Cc1cccc(NS(=O)(=O)C2CC2)c1F` [Compound 59, N-(2-fluoro-3-{[2-oxo-7-(pyridazin-3-yloxy)-2,3-dihydrospiro[1,3-benzoxazine-4,3′-oxetan]-3-yl]methyl}phenyl)cyclopropanesulfonamide]: the results for the IC50 on MEK1 (setting [2]), in the assay with p-ERK1/2 in HCT116 cells and with NCI-H292 cells were 5 to 50 nM, 1 to 10 nM and 1 to 10 nM, respectively.

With `CNS(=O)(=O)Nc1nccc(CN2C(=O)Oc3cc(Oc4cccnn4)c(F)cc3C23COC3)c1F` [Compound 18, 6-fluoro-3-{[3-fluoro-2-(methylaminosulfonylamino)-4-pyridyl]methyl}-7-(3-pyridazinyloxy)-2H,3H-spiro[1,3-benzoxazine-4,3′-oxetan]-2-one], the EC50 with BRAF-MEK1 (setting [1]) is under 50 nM. In addition, the IC50 on MEK1 (setting [2]) lay in the range of 5 to 50 nM; with p-ERK1/2 in HCT116 cells, 10 to 100 nM.

In the case of `O=C1Oc2cc(Oc3nccnn3)ccc2C2(CCC2)N1Cc1ccnc(NS(=O)(=O)C2CC2)c1F` [Compound 161, (cyclopropylsulfonyl)[3-fluoro-4-({2-oxo-7-(1,2,4-triazin-3-yloxy)-2H,3H-spiro[1,3-benzoxazine-4,1′-cyclobutan]-3-yl}methyl)-2-pyridyl]amine], the EC50 in the assay on BRAF-MEK1 (setting [1]) lay in the range of 50 to 200 nM. Also, the IC50 lay within 10 to 100 nM with p-ERK1/2 in HCT116 cells and 1 to 10 nM with NCI-H292 cells.

Turning to `CNS(=O)(=O)Nc1cccc(CN2Cc3c(F)cc(Oc4ncccn4)cc3OC2=O)c1F` [Compound 117], the EC50 in the assay with BRAF-MEK1 (setting [1]) was 200 to 1000 nM. Also, the figures for the IC50 at MEK1 (setting [2]), with p-ERK1/2 in HCT116 cells and with NCI-H292 cells were 5 to 50 nM, 1 to 10 nM and 10 to 100 nM, respectively.

For the molecule `O=C1Oc2cc(Oc3ccccn3)ccc2CN1Cc1cccc(NS(=O)(=O)C2CC2)c1F` [Compound 62, N-(2-fluoro-3-((2-oxo-7-(pyridin-2-yloxy)-2H-benzo[e][1,3]oxazin-3(4H)-yl)methyl)phenyl)cyclopropanesulfonamide], the values for the IC50 at MEK1 (setting [2]), with p-ERK1/2 in HCT116 cells and with NCI-H292 cells were 5 to 50 nM, over 100 nM and over 100 nM, respectively.

Take `CNS(=O)(=O)Nc1cccc(CN2C(=O)Oc3cc(Oc4ncco4)ccc3C23COC3)c1F` [Compound 95, 3-({2-fluoro-3-[(methylsulfamoyl)amino]phenyl}methyl)-7-(1,3-oxazol-2-yloxy)-2,3-dihydrospiro[1,3-benzoxazine-4,3′-oxetan]-2-one]: in the assay on BRAF-MEK1 (setting [1]), the EC50 is 50 to 200 nM. Besides, the IC50 is under 5 nM on MEK1 (setting [2]), 1 to 10 nM in the assay on p-ERK1/2 in HCT116 cells and 1 to 10 nM with NCI-H292 cells.

On to `CNS(=O)(=O)Nc1cccc(CN2Cc3ccc(C(F)(F)C(=O)N(C)C)cc3OC2=O)c1F` [Compound 133], for which the half-inhibitory concentration (IC50) at MEK1 (setting [2]) was in the range of 5 to 50 nM; in the assay on p-ERK1/2 in HCT116 cells, 10 to 100 nM; with NCI-H292 cells, 10 to 100 nM.

As for `CNS(=O)(=O)Nc1nccc(CN2Cc3ccc(Oc4ncco4)cc3OC2=O)c1F` [Compound 162, 3-{[3-fluoro-2-(methylaminosulfonylamino)-4-pyridyl]methyl}-7-(1,3-oxazol-2-yloxy)-3,4-dihydro-2H-1,3-benzoxazin-2-one], the EC50 with BRAF-MEK1 (setting [1]) lay within 50 to 200 nM. Besides, the IC50 in the assay with p-ERK1/2 in HCT116 cells was in the range of 10 to 100 nM; in the assay on NCI-H292 cells, 1 to 10 nM.

Turning to `CNS(=O)(=O)Nc1nccc(CN2C(=O)Oc3cc(Oc4cccnn4)ccc3[C@@H]2C)c1F` (single isomer, unassigned) [Compound 22], the EC50 in the assay with BRAF-MEK1 (setting [1]) was in the range of 50 to 200 nM. The IC50 on MEK1 (setting [2]) fell in the range of 5 to 50 nM; in the assay on p-ERK1/2 in HCT116 cells it was 10 to 100 nM.

For `CNS(=O)(=O)Nc1cccc(CN2C(=O)Oc3cc(Oc4cccnn4)c(F)cc3C23CCC3)c1F` [Compound 19, 6-fluoro-3-{1[2-fluoro-3-(methylaminosulfonylamino)phenyl]methyl}-7-(3-pyridazinyloxy)-2H,3H-spiro[1,3-benzoxazine-4,1′-cyclobutan]-2-one], the EC50 with BRAF-MEK1 (setting [1]) was under 50 nM. For the same molecule, the figures for the IC50 on MEK1 (setting [2]) and with p-ERK1/2 in HCT116 cells were 5 to 50 nM and under 1 nM, respectively.

In the case of `CNS(=O)(=O)Nc1nccc(CN2C(=O)Oc3cc(Oc4cccnn4)ccc3C23CCC3)c1F` [Compound 20, 3-{[3-fluoro-2-(methylaminosulfonylamino)-4-pyridyl]methyl}-7-(3-pyridazinyloxy)-2H,3H-spiro[1,3-benzoxazine-4,1′-cyclobutan]-2-one], the EC50 in the assay with BRAF-MEK1 (setting [1]) is under 50 nM. Further, the IC50 on MEK1 (setting [2]) is under 5 nM; with p-ERK1/2 in HCT116 cells, 1 to 10 nM.

Turning to `CNS(=O)(=O)Nc1cccc(CN2Cc3cc(Cl)c(Oc4ncccn4)cc3OC2=O)c1F` [Compound 148, 6-chloro-3-({2-fluoro-3-[(methylsulfamoyl)amino]phenyl}methyl)-7-(pyrimidin-2-yloxy)-3,4-dihydro-2H-1,3-benzoxazin-2-one], the IC50 on MEK1 (setting [2]) is 5 to 50 nM; with p-ERK1/2 in HCT116 cells it was 10 to 100 nM; in the assay with NCI-H292 cells, 10 to 100 nM.

As to `CNS(=O)(=O)Nc1cccc(CN2Cc3ccc(Oc4ccccn4)cc3OC2=O)c1F` [Compound 65, 3-({2-fluoro-3-[(methylsulfamoyl)amino]phenyl}methyl)-7-(pyridin-2-yloxy)-3,4-dihydro-2H-1,3-benzoxazin-2-one], the IC50 is under 5 nM on MEK1 (setting [2]), 10 to 100 nM in the assay with p-ERK1/2 in HCT116 cells and 10 to 100 nM in the assay on NCI-H292 cells.

These data come from patent publication US20260297105A1, “RAF-MEK PROTEIN COMPLEX MODULATORS AND METHODS OF USE THEREOF” (GANDEEVA THERAPEUTICS, INC., priority 2023, published 2026).
